Experiments:
[1] = root beer, buffered pH about 11, integrated absorbance 440 to 700 nm vs control without CIP composition; ppm of active as per example
Description: For each of the five (5) experiments below, two quartz UV cells having a path length of 5.0 cm were each charged with 5.95 mL of a 0.1 molar sodium phosphate solution (to establish a buffered pH of about 11). The first cell was further charged with 0.6 mL of neat (conventional) root beer, as made commercially available. The second cell was further charged with 0.6 mL deionized water. Using the contents of the second cell as the blank, the absorbance of the resulting root beer solution was determined over the range of 440 to 700 nm, using a Hewlett-Packard 8452 UV/vis spectrophotometer. The absorbance over this wavelength range was integrated, and the percent (%) reduction in color of root beer was based on a comparison to the integrated absorbance of the control to which no CIP composition has been added.

[2] = system: Bacillus cerus; test: Suspension test, percent microbes killed by CIP composition; assay type: cell-based; settings: suspension 8.5 log bacteria/mL, 50 ppm CaCO3
Description: (§1) American Type Culture Collection cultures were transferred daily and maintained on agar slants containing the appropriate growth medium^1. A loopful of the culture was transferred into 10 ml of Butterfield's phosphate buffer pH 7.2 (NutraMax Products, Inc.) and agitated to obtain a homogeneous turbid suspension. The actual concentration of microbes in suspension was estimated by its serial dilution in Butterfield's phosphate buffer and subsequent transfer of 0.1 ml of the dilution series into a Petri plate containing the appropriate agar growth medium. The inoculated Petri plates were incubated for 48-72 hours (at about 37° C.) and the resulting colonies counted with a Quebec colony counter. The number of colonies on the Petri plates multiplied by the serial dilution factor is equal to the number of microbes in 0.1 ml of inoculum.
(§2) Suspension test: 1 ml of each microbial suspension was mixed with 9 ml of each CIP composition containing 50 ppm CaCO3 at 10/9 of the recommended use concentration (RUC) so that final concentration was exact RUC. After contact times described above, 1 ml of the mixture was put to 9 ml of neutralizer^2 from which 0.1 ml of sample was plated onto the appropriate agar and incubated at 28° C. for 48-72 hours before counting. The number of colonies present on the Petri plates multiplied by the serial dilution factor is equal to the number of microbes in 0.1 ml that survived in the sanitizer solution.
(§3) The per cent microbes killed by CIP composition is calculated by using the following equation: […]
(§4) One (1) mL of suspension and 9.0 mL of CIP composition were combined, resulting in the above data. The pH of the chlorine dioxide CIP composition was 5.8, the mixed halogen is sold by DiverseyLever under the name of Divosan MH and the peroxyacetic acid was an aqueous solution having about 65% water.

[3] = system: Zygosaccharomyces bailii; test: as above; assay type: cell-based; settings: suspension 8.5 log bacteria/mL, 50 ppm CaCO3
Description: as §1, §2, §3, §4

[4] = system: Candida Albicans; test: as above; assay type: cell-based; settings: suspension 8.0 log bacteria/mL, 50 ppm CaCO3
Description: as §1, §2, §3, §4

[5] = system: Byssochlamys nivea; test: as above; assay type: cell-based; settings: suspension 8.1 log bacteria/mL, 50 ppm CaCO3
Description: as §1, §2, §3, §4

[6] = system: Rhizopus stolonifer; test: as above; assay type: cell-based; settings: suspension 7.5 log bacteria/mL, 50 ppm CaCO3
Description: as §1, §2, §3, §4

[7] = system: Lactobacillus brevis; test: as above; assay type: cell-based; settings: suspension 8.2 log bacteria/mL, 50 ppm CaCO3
Description: as §1, §2, §3, §4

| Structure (SMILES) | % Reduction of Color [1] [%] | percent bacteria killed, Bacillus cerus ([2]; contact 2 minutes) [%] | percent bacteria killed, Zygosaccharomyces bailii ([3]; contact 2 minutes) [%] | percent bacteria killed, Candida Albicans ([4]; contact 2 minutes) | percent bacteria killed, Byssochlamys nivea ([5]; contact 30 seconds) | percent bacteria killed, Byssochlamys nivea ([5]; contact 2 minutes) | percent bacteria killed, Rhizopus stolonifer ([6]; contact 30 seconds) | percent bacteria killed, Rhizopus stolonifer ([6]; contact 2 minutes) [%] | percent bacteria killed, Lactobacillus brevis ([7]; contact 2 minutes) [%] | percent bacteria killed, Bacillus cerus ([2]; contact 30 seconds) [%] | percent bacteria killed, Zygosaccharomyces bailii ([3]; contact 30 seconds) | percent bacteria killed, Candida Albicans ([4]; contact 30 seconds) | percent bacteria killed, Lactobacillus brevis ([7]; contact 30 seconds) [%] |
| --- | --- | --- | --- | --- | --- | --- | --- | --- | --- | --- | --- | --- | --- |
| [O][Cl+][O-] [Example 3, chlorine dioxide] | 56.09 | – | – | – | – | – | – | – | – | – | – | – | – |
| [Na+].[O-]Cl [Example 4, sodium hypochlorite] | 36.49 | – | – | – | – | – | – | – | – | – | – | – | – |
| CC(=O)OO [Example 6, peroxyacetic acid] | 25.76 | – | – | – | – | – | – | – | – | – | – | – | – |
| [O][Cl+][O-] [Example 7, chlorine dioxide] | – | ~99.9999 | ~99.9999 | About 99.9999% | About 99.99% | ~99.9999% | About 99.99% | ~99.9999 | ~99.9999 | – | – | – | – |
| CC(=O)OO [Example 9, Peroxyacetic acid] | – | ~99.9999 | ~99.9999 | About 99.9999% | About 99.9% | About 99.99% | <99% | <99 | ~99.9999 | ~99.99 | About 99.99% | About 99.99% | ~99.9999 |

From USRE40050E1, “Method for cleaning and/or disinfecting food processing equipment” (priority 1999, dated 2008)
